Assay [1] has as its target T1, NEK4 (Homo sapiens, UniProt P51957). Nature of the assay: radiometric kinase assay (Eurofins), IC50. It counts as biochemical.
Assay [2] deals with T2, EGFR (Homo sapiens, UniProt P00533). The assay can be described thus: biochemical. Also noted: Eurofins KinaseProfiler full panel at Km ATP, residual kinase activity (%) relative to DMSO. In a few lines:
(§1)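 Radiometric kinase activity assays were run with ATP at Km and compounds at 10 µM, and remaining activity (%) was reported. A separate competitive binding screen measured DNA-tagged kinase displaced from immobilized active-site ligands by qPCR, giving percent kinase still bound at 10 µM compound in DMSO.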

The target in another assay is T3, DYRK3(h) (Homo sapiens, UniProt O43781).
T3 sequence (O43781 1-588): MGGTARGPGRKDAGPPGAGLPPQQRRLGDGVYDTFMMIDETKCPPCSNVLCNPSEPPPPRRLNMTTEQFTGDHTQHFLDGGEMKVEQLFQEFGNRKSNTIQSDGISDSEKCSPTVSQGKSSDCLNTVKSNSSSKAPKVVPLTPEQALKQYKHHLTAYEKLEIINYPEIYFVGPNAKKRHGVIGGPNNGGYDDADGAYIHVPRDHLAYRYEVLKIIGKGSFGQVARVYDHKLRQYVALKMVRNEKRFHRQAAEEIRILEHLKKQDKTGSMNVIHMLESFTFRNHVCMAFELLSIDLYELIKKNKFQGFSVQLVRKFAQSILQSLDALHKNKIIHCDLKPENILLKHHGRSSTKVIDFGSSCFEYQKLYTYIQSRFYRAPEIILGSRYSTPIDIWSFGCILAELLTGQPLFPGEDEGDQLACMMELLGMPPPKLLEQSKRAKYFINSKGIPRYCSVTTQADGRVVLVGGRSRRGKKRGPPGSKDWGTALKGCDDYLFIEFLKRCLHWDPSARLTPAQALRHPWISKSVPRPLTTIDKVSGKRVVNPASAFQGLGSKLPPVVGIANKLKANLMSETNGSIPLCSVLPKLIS
The assay can be described thus: biochemical. More on the design: Eurofins KinaseProfiler full panel at Km ATP, residual kinase activity (%) relative to DMSO. In a few lines: as §1

Assay [3] deals with T4, CLK4 (Homo sapiens, UniProt Q9HAZ1). The assay can be described thus: biochemical. More on the design: Eurofins KinaseProfiler full panel at Km ATP, residual kinase activity (%) relative to DMSO. In a few lines:
as §1

The target in another assay is T5, MSK2(h) (Homo sapiens, UniProt O75676).
T5 construct: gene RPS6KA4
T5 sequence (O75676 whole entry): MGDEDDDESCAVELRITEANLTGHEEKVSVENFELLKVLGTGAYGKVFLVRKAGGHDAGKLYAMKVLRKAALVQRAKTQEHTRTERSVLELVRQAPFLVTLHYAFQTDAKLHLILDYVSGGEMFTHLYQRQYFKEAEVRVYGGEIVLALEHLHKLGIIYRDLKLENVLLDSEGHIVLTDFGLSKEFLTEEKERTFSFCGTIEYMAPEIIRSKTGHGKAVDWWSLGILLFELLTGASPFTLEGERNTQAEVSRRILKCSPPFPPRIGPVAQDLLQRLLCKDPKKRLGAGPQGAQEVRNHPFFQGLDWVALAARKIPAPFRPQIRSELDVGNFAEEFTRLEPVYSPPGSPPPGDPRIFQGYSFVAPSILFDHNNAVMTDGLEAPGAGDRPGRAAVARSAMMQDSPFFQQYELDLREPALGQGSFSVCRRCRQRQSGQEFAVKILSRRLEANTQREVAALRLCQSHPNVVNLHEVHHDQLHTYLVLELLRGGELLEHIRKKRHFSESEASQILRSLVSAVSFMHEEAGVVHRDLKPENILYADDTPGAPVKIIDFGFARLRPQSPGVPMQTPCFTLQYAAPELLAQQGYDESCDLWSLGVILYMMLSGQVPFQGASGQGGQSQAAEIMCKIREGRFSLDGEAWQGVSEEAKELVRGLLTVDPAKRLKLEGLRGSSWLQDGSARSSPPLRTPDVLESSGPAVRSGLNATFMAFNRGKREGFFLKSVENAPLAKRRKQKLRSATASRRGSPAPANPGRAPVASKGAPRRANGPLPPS
The assay can be described thus: biochemical. Also noted: Eurofins KinaseProfiler full panel at Km ATP, residual kinase activity (%) relative to DMSO. A digest of the protocol: as §1

For assay [4], the target named is T4, CLK4. Nature of the assay: kinase panel (Eurofins), residual activity at […]. Format: biochemical.
The target of assay [5] is T2, EGFR. The assay can be described thus: kinase panel (Eurofins), residual activity at […]. It counts as biochemical.
In assay [6] the target is T1, NEK4. Nature of the assay: kinase panel (Eurofins), residual activity at […]. It counts as biochemical. Conditions: read-out: [drawing 3] / Residual Activity (%).
[7] abbreviates: read-out: Residual activity (%) 5at.
Where [8] appears, read: read-out: [drawing 2] / Residual Activity (%).
Where [9] appears, read: read-out: Residual activity (%) 5ay.
Where [10] appears, read: read-out: Residual activity (%) 5as.
Where [11] appears, read: read-out: [drawing 1] / Residual Activity (%).
Where [12] appears, read: read-out: Residual activity (%) Spautin-1 5aa.

Where two headings read alike, the source gives them in different places.

The text below walks through data of publication PMC7827406, “Structure–Activity Relationship (SAR) Study of Spautin-1 to Entail the Discovery of Novel NEK4 Inhibitors” (International Journal of Molecular Sciences, 2021).

What is called IC50 is the concentration that inhibits the measured activity by half. Low values mean greater potency in that assay, high ones weaker potency in that assay.

T2 sequence (P00533 25-1210): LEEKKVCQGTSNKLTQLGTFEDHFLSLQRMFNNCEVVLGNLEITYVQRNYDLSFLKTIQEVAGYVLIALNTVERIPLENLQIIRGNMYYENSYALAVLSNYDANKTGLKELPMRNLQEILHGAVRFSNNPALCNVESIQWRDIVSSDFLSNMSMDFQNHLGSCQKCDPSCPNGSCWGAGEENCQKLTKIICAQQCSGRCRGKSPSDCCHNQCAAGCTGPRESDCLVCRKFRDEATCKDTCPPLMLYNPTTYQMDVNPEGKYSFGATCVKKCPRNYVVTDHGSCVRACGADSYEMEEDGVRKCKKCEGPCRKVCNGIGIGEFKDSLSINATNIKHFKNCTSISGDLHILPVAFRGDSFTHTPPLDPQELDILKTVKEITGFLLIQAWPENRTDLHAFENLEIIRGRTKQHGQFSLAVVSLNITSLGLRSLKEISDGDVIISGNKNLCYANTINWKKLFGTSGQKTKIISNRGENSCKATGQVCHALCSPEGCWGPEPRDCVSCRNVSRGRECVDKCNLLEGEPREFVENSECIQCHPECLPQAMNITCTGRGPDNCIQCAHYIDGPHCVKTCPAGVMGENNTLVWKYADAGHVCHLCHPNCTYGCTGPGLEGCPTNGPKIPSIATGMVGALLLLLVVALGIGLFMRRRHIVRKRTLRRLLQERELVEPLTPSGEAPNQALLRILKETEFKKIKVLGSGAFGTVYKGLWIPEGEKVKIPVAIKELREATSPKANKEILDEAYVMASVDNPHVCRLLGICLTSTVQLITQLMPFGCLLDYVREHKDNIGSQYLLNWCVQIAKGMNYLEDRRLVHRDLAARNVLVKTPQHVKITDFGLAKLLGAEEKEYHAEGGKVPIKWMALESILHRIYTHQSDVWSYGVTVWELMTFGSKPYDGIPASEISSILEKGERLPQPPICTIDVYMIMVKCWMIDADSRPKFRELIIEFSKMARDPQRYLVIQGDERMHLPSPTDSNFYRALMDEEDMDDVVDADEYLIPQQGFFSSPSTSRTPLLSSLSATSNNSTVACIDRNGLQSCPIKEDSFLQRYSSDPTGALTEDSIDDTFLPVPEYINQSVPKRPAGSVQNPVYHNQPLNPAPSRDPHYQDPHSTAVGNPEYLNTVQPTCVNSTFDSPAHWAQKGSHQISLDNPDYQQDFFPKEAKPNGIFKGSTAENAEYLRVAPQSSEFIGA
T4 sequence (Q9HAZ1 whole entry): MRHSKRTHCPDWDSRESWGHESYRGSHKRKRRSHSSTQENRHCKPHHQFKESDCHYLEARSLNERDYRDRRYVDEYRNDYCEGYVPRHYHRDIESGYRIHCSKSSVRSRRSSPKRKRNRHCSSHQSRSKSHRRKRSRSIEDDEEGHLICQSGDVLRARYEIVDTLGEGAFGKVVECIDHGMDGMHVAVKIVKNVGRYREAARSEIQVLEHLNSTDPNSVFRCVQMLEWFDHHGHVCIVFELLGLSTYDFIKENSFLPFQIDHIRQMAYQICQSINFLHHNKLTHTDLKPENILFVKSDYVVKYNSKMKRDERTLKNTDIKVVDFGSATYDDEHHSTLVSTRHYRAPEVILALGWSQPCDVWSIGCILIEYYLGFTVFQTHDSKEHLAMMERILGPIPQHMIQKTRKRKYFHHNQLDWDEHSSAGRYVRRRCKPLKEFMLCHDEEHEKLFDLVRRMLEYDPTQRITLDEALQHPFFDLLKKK
T1 sequence (P51957 whole entry): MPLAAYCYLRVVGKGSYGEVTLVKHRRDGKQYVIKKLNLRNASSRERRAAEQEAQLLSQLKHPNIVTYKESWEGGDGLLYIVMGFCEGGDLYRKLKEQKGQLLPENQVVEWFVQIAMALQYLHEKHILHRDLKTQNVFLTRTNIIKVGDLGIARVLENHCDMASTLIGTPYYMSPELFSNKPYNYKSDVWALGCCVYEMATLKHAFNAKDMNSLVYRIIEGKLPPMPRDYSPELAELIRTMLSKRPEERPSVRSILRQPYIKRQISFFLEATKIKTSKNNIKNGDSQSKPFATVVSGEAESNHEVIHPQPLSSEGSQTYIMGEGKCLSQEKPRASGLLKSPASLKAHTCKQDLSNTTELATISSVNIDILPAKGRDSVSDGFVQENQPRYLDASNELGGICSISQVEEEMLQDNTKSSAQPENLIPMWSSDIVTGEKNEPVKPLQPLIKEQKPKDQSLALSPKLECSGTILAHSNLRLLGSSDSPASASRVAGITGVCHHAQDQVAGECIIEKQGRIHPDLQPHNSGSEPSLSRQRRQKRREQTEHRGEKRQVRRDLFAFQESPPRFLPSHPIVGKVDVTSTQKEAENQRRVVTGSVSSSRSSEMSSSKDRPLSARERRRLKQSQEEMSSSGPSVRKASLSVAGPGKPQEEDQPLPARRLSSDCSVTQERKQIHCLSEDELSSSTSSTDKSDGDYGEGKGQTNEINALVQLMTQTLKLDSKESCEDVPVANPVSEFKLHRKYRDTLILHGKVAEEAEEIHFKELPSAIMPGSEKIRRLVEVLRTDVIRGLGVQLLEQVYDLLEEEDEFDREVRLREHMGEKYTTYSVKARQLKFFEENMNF

As to `Fc1ccc2ncnc(NCCc3ccc(Cl)cc3)c2c1` [5at, N-[2-(4-Chlorophenyl)Ethyl]-6-Fluoro-4-Quinazolinamine], the IC50 at NEK4 [1] was ~1000 nM. The remaining activity at 10 µM at EGFR [2] (setting [7]) worked out at 72%; at DYRK3(h) (setting [7]) it was 98%; at CLK4 [3] (setting [7]) it was 16%; on MSK2(h) (setting [7]) it was 97%.
Turning to `COc1ccc2ncnc(Nc3cccc(F)c3)c2c1` [5ay, N-(3-Fluorophenyl)-6-Methoxy-4-Quinazolinamine], the remaining activity at 10 µM at CLK4 [4] (setting [8]) is 6%; on DYRK3(h) (setting [9]), 57%; at MSK2(h) (setting [9]), 88%; at EGFR [5] (setting [8]) it was 1%.
As for `Fc1ccc(CCNc2ncnc3ccc(F)cc23)cc1` [5as, 6-Fluoro-N-[2-(4-Fluorophenyl)Ethyl]-4-Quinazolinamine], the remaining activity at 10 µM on NEK4 [6] is 27%; at EGFR [2] (setting [10]), 46%; at DYRK3(h) (setting [10]) it was 98%; at CLK4 [3] (setting [10]), 12%; on MSK2(h) (setting [10]), 96%.
In the case of `Fc1ccc(CNc2ncnc3ccc(F)cc23)cc1` [5aa, 6-Fluoro-N-(4-fluorobenzyl)-4-Quinazolinamine], the remaining activity at 10 µM at CLK4 [4] (setting [11]) is 19%; on DYRK3(h) (setting [12]), 117%; on MSK2(h) (setting [12]), 91%; at EGFR [5] (setting [11]) it was 27%.
